# Results reported in PubChem BioAssay (NCI).
#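 Cultured in 96-well plates, cells were exposed to test compound for 48 hours across five concentrations. At the GI50, growth is halved. TGI is the concentration that stops growth completely.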
# Assays:
# Assay in all cases: inhibition of tumour cell growth, NCI panel, 48 h
# NCI-H226 lung = system: NCI-H226 lung
# HT29 colon = system: HT29 colon
# EKVX NSCLC = system: EKVX NSCLC
# SK-MEL-28 melanoma = system: SK-MEL-28 melanoma
# HOP-92 NSCLC = system: HOP-92 NSCLC
# HS 578T breast = system: HS 578T breast
# UO-31 renal = system: UO-31 renal
# HCT-15 colon = system: HCT-15 colon
# MDA-MB-435 = system: MDA-MB-435
# 786-0 renal = system: 786-0 renal
# NCI-H460 lung = system: NCI-H460 lung
# SF-295 CNS = system: SF-295 CNS
# UACC-257 melanoma = system: UACC-257 melanoma
# MALME-3M melanoma = system: MALME-3M melanoma
# RXF 393 renal = system: RXF 393 renal
# SNB-75 CNS = system: SNB-75 CNS
# SK-OV-3 ovarian = system: SK-OV-3 ovarian
# OVCAR-8 ovarian = system: OVCAR-8 ovarian
# DU-145 prostate = system: DU-145 prostate
# SF-539 CNS = system: SF-539 CNS
# TK-10 renal = system: TK-10 renal
# RPMI-8226 leukemia = system: RPMI-8226 leukemia
# OVCAR-5 ovarian = system: OVCAR-5 ovarian
# UACC-62 melanoma = system: UACC-62 melanoma
# COLO 205 colon = system: COLO 205 colon
# ACHN renal = system: ACHN renal
smiles,measurement,setting,value
O=c1[nH]cnc2c(C3NC(CO)C(O)C3O)c[nH]c12 (configuration not stated),GI50,NCI-H226 lung,> 100 µM
same,TGI,NCI-H226 lung,> 100 µM
same,GI50,HT29 colon,> 100 µM
same,TGI,HT29 colon,> 100 µM
same,GI50,EKVX NSCLC,> 100 µM
same,TGI,EKVX NSCLC,> 100 µM
same,GI50,SK-MEL-28 melanoma,> 100 µM
same,TGI,SK-MEL-28 melanoma,> 100 µM
same,GI50,HOP-92 NSCLC,> 100 µM
same,TGI,HOP-92 NSCLC,> 100 µM
same,GI50,HS 578T breast,> 100 µM
same,TGI,HS 578T breast,> 100 µM
same,GI50,UO-31 renal,> 100 µM
same,TGI,UO-31 renal,> 100 µM
same,GI50,HCT-15 colon,> 100 µM
same,TGI,HCT-15 colon,> 100 µM
same,GI50,MDA-MB-435,> 100 µM
same,TGI,MDA-MB-435,> 100 µM
same,GI50,786-0 renal,> 100 µM
same,TGI,786-0 renal,> 100 µM
same,GI50,NCI-H460 lung,> 100 µM
same,TGI,NCI-H460 lung,> 100 µM
same,GI50,SF-295 CNS,> 100 µM
same,TGI,SF-295 CNS,> 100 µM
same,GI50,UACC-257 melanoma,> 100 µM
same,TGI,UACC-257 melanoma,> 100 µM
same,GI50,MALME-3M melanoma,> 100 µM
same,TGI,MALME-3M melanoma,> 100 µM
same,GI50,RXF 393 renal,> 100 µM
same,TGI,RXF 393 renal,> 100 µM
same,GI50,SNB-75 CNS,> 100 µM
same,TGI,SNB-75 CNS,> 100 µM
same,GI50,SK-OV-3 ovarian,> 100 µM
same,TGI,SK-OV-3 ovarian,> 100 µM
same,GI50,OVCAR-8 ovarian,> 100 µM
same,TGI,OVCAR-8 ovarian,> 100 µM
same,GI50,DU-145 prostate,> 100 µM
same,TGI,DU-145 prostate,> 100 µM
same,GI50,SF-539 CNS,> 100 µM
same,TGI,SF-539 CNS,> 100 µM
same,GI50,TK-10 renal,> 100 µM
same,TGI,TK-10 renal,> 100 µM
same,GI50,RPMI-8226 leukemia,> 100 µM
same,TGI,RPMI-8226 leukemia,> 100 µM
same,GI50,OVCAR-5 ovarian,> 100 µM
same,TGI,OVCAR-5 ovarian,> 100 µM
same,GI50,UACC-62 melanoma,> 100 µM
same,TGI,UACC-62 melanoma,> 100 µM
same,GI50,COLO 205 colon,> 100 µM
same,TGI,COLO 205 colon,> 100 µM
same,GI50,ACHN renal,> 100 µM
same,TGI,ACHN renal,> 100 µM
